TGI data for eight compounds are collected here from PubChem BioAssay (NCI).

Structures are written as SMILES.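 Compound exposure: 48 hours, 5 concentrations, 96-well plates. TGI marks complete inhibition of growth.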 Where only a bound is given, the exact number is not on record here.

Common to all, as to experiment: NCI tumour cell line growth inhibition, 48 h
The test system of assay [1] is SNB-75 CNS.
Assay [2] relates to SW-620 colon.
In assay [3] the test system is OVCAR-4 ovarian.
The subject of assay [4] is NCI-H522 lung.
The test system of assay [5] is HS 578T breast.
Assay [6] deals with SF-268 CNS.
The subject of assay [7] is SR leukemia.
For assay [8], the system named is MDA-N.
The test system of assay [9] is UACC-257 melanoma.
Assay [10] deals with 786-0 renal.
The subject of assay [11] is CAKI-1 renal.
The test system of assay [12] is NCI-H226 lung.
The subject of assay [13] is RXF 393 renal.
The subject of assay [14] is SN12C renal.
Assay [15] deals with HCT-15 colon.
Assay [16] has as its system UO-31 renal.
The test system of assay [17] is PC-3 prostate.
The test system of assay [18] is HOP-92 NSCLC.
The subject of assay [19] is OVCAR-8 ovarian.

Turning to `CCOC(=O)CC(N1CC1)N1CC1`, the TGI in [1], in [2], in [3], in assay [4], in [5] and in assay [6] was more than 10 µM throughout. Moreover, the TGI in assay [7], in [8], in assay [9], in assay [10], in assay [11] and in assay [12] was more than 10 µM each time. For the same compound, the TGI in assay [13], in [14], in [15], in assay [16] and in assay [17] was more than 10 µM throughout.
`CNC(=O)OCCN1c2ccccc2Sc2ccccc21`: the TGI in assay [2], in assay [3], in [4], in [5], in [6] and in assay [7] was more than 100 µM each time. In addition, the TGI in assay [8] is more than 100 µM; in assay [9], more than 100 µM; in [10] it was more than 100 µM; in [11] it was more than 100 µM; in assay [12] it was more than 100 µM; in assay [13] it was 99.2 µM. In addition, the TGI in assay [14], in assay [18], in assay [15], in assay [16], in [19] and in assay [17] was more than 100 µM in each case.
For the compound `O=C(O)c1cc(N(Cc2ccccc2O)Cc2cc(O)ccc2O)ccc1O`, the TGI in assay [2], in assay [3], in assay [5], in [6], in assay [7] and in [8] was more than 100 µM each time. The TGI in assay [9], in assay [10], in assay [12], in assay [13], in [14] and in assay [18] was more than 100 µM each time. Moreover, the TGI in assay [15], in assay [16], in [19] and in [17] was more than 100 µM each time.
Consider `CCOC(=O)C(Cc1cn(S(=O)(=O)c2ccc(C)cc2)cn1)P(=O)(OCC)OCC` (stereo not given), for which the TGI in [1], in assay [2], in [3], in assay [4], in [5] and in assay [6] was more than 100 µM in each case. The TGI in [7], in assay [8], in assay [9], in [10], in assay [11] and in assay [12] was more than 100 µM throughout. Also, the TGI in assay [13], in assay [14], in assay [15], in assay [16], in assay [19] and in [17] was more than 100 µM each time.
With `O=C(NNC(=O)c1ccccc1Cl)c1ccccc1O`, the TGI in assay [1] is more than 100 µM; in [2], more than 100 µM; in assay [3], more than 100 µM; in assay [4], 99.2 µM; in [5], more than 100 µM; in [6], more than 100 µM. Also, the TGI in assay [7] is more than 100 µM; in assay [8], more than 100 µM; in [9], more than 100 µM; in assay [10] it was more than 100 µM; in assay [11] it was more than 100 µM; in [12] it was 77.1 µM. For the same compound, the TGI in assay [13], in assay [14], in [15], in assay [16], in assay [19] and in assay [17] was more than 100 µM throughout.
Regarding `COC(=O)CNC(=O)Nc1cc(N2C(=O)ON3C2C(C)(C)N(O)C3(C)C)ccc1C` (stereo not given), the TGI in assay [1], in assay [2], in assay [3], in assay [4], in assay [5] and in assay [6] was more than 100 µM each time. Moreover, the TGI in assay [7], in [8], in assay [9], in [10], in assay [11] and in [12] was more than 100 µM each time. For the same compound, the TGI in [13], in assay [14], in [15], in assay [16], in [19] and in assay [17] was more than 100 µM in each case.
For `CCOC(=O)CCC(NC(=O)c1ccc(Oc2nc3ccccc3nc2C(=O)OCC)cc1)C(=O)OCC` (stereo not given), the TGI in assay [1] is 98.1 µM; in assay [2] it was more than 100 µM; in assay [3], more than 100 µM; in [4] it was more than 100 µM; in assay [5], more than 100 µM; in [6], more than 100 µM. Also, the TGI in assay [7], in assay [8], in [9], in [10], in assay [11] and in [14] was more than 100 µM throughout. Moreover, the TGI in assay [18], in assay [15], in assay [16], in [19] and in [17] was more than 100 µM each time.
In the case of `FC(F)(F)C1(C(F)(F)F)C2CCC3(CC(F)(F)C(F)(F)S3)C1C2` (stereo not given), the TGI in assay [1], in assay [2], in [3], in [4], in assay [5] and in assay [6] was more than 100 µM throughout. The TGI in assay [7] is 44.1 µM; in [8], more than 100 µM; in assay [9], 74.3 µM; in [10] it was more than 100 µM; in [11], more than 100 µM; in assay [12] it was more than 100 µM. For the same compound, the TGI is 84.3 µM in [13]; more than 100 µM in assay [14]; more than 100 µM in assay [15]; 68.3 µM in assay [16]; more than 100 µM in assay [19]; more than 100 µM in assay [17].
